Converted amounts (≈) assume the structure as drawn.
Legend:
[1] = test system: MCF7 breast cancer cells; assay: MTT assay, MCF7; conditions: for cytotoxicity at 100 µg/mL / IC50: Homo sapiens, MCF7, 72 h; for IC50: read-out: IC50 MCF7
Text: (§1) All of the following steps were done in a sterile Laminar flow class II biosafety cabinet (Baker, SG406INT, Sanford, ME, USA). DMEM was used as a suspension medium for breast cancer (MCF7), colorectal cancer (HCT116), prostate cancer (PC3), liver cancer (HePG2), pancreatic cancer (PACA2) and lung cancer (A549), while normal cell line (BJ1) was suspended in DMEM-F12 medium. The selected cell lines were purchased from American Type Culture Collection (ATCC). The media were supplemented with a 1% antimycotic-antibiotic mixture (10,000 µg/ml streptomycin sulfate, 25 µg/ml Amphotericin B, and 10,000 U/ml Potassium Penicillin) and 1% L-glutamine. 10 × 10^4cells/well were seeded in 96 well microtiter plates and incubated for 24 h at 37 ℃ under 5% carbon dioxide using a water-jacketed Carbon dioxide incubator (Sheldon, SCO5A, OR, USA). […] After the incubation time of 72 h, the medium was removed. Afterward, 40 µl MTT salt ([…]) was added to each well and kept for 4 h under the same conditions of 37 °C and 5% carbon dioxide. Finally, 200 μl of 10% Sodium dodecyl sulfate (SDS) in deionized water was added to each well and incubated overnight at 37 °C. The step of SDS addition was done to stop the reaction and dissolve the formed formazan crystals. The absorbance was then measured at a wavelength of 595 nm and the reference wavelength was set at 620 nm using a microplate multi-well reader (Bio-Rad Laboratories Inc., model 3356, California, USA). […] A statistical significance analysis was determined between the samples and the negative control using an independent t-test by SPSS 11 program. Dimethyl sulfoxide (DMSO) was the vehicle that dissolved our synthesized compounds and its concentration in the cells was less than 0.2%. IC50 values were calculated using the GraphPad Prism 6 program. The degree of selectivity of the synthetic compounds was expressed as SI = IC50 of a pure compound in a normal cell line/IC50 of the same pure compound in the cancer cell line, where IC50 is the concentration of the compound required to kill 50% of the cells.

[2] = test system: PC3 prostate cancer cells; assay: MTT assay, PC3; conditions: Homo sapiens, 72 h; for cytotoxicity at 100 µg/mL: read-out: MTT cell proliferation mortality assay (%) PC3, at 100 μg/ml, 72 h; for IC50: read-out: IC50 PC3
Text: as §1

[3] = test system: A549 lung cancer cells; assay: MTT assay, A549; conditions: Homo sapiens, A549, 72 h, read-out: MTT cell proliferation mortality assay (%) A549, at 100 μg/ml, 72 h
Text: as §1

[4] = MTT assay, normal cell line BJ1; type: cell-based; conditions: human, at 100 μg/ml, read-out: MTT cell proliferation mortality assay (%) BJ1
Text: as §1

[5] = test system: HCT116 colorectal cancer cells; assay: MTT assay, HCT116; conditions: Homo sapiens, HCT-116, 72 h; for cytotoxicity at 100 µg/mL: read-out: MTT cell proliferation mortality assay (%) HCT116, at 100 μg/ml, 72 h
Text: as §1

[6] = test system: PACA2 pancreatic cancer cells; assay: MTT assay, PACA2; conditions: Homo sapiens, PaCa-2, 72 h; for cytotoxicity at 100 µg/mL: read-out: MTT cell proliferation mortality assay (%) PACA2; for IC50: read-out: IC50 PACA2
Text: as §1

[7] = test system: HePG2 liver cancer cells; assay: MTT assay, HePG2; conditions: Homo sapiens, HepG2, 72 h, read-out: MTT cell proliferation mortality assay (%) HePG2
Text: as §1

[8] = read-out: MTT cell proliferation mortality assay (%) MCF7

Structure (SMILES) | cytotoxicity at 100 µg/mL [1, 8] | cytotoxicity at 100 µg/mL [2] | cytotoxicity at 100 µg/mL [3] | cytotoxicity at 72 h, 100 μg/ml [4] | cytotoxicity at 100 µg/mL [5] | cytotoxicity at 100 µg/mL [6] | cytotoxicity at 100 µg/mL [7] | IC50 [1] | IC50 [2] | IC50 ([5]; read-out: IC50 HCT116) | IC50 [6] | cytotoxicity ([1]; read-out: MTT cell proliferation mortality assay (%) MCF7, at 100 μg/ml, 72 h)
COc1ncnc2c1c(-c1ccc(Br)cc1)c(Cl)n2-c1ccc(Cl)cc1Cl [Compound 9a, 5-(4-bromophenyl)-6-chloro-7-(2,4-dichlorophenyl)-4-methoxy-7H-pyrrolo[2,3-d]pyrimidine] | 75.2 ± 3.6% | 53.8 ± 0.3% | 58.6 ± 1.3% | 37.8 ± 0.6% | 52.1 ± 0.8% | 1.3 ± 0.2% | – | – | – | – | – | –
COc1ccc(-c2c(Cl)n(-c3ccc(Cl)cc3Cl)c3ncnc(OC)c23)cc1OC [Compound 9b, 6-chloro-7-(2,4-dichlorophenyl)-5-(3,4-dimethoxyphenyl)-4-methoxy-7H-pyrrolo[2,3-d]pyrimidine] | 100% | – | – | – | 45.6 ± 3.2% | 2.5 ± 0.3% | 63.8 ± 0.6% | – | – | – | – | –
Clc1ccc(-n2c(Cl)c(-c3ccc(Br)cc3)c3c(N4CCCC4)nc(C(Cl)(Cl)Cl)nc32)c(Cl)c1 [Compound 10, 5-(4-bromophenyl)-6-chloro-7-(2,4-dichlorophenyl)-4-(pyrrolidin-1-yl)-2-(trichloromethyl)-7H-pyrrolo[2,3-d]pyrimidine] | 100% | 100% | 10.2 ± 0.5% | 100% | 100% | 100% | – | 61.1 ± 1.4 µg/mL (≈ 95.5 µM) | 11.6 ± 0.8 µg/mL (≈ 18.1 µM) | 26.9 ± 0.6 µg/mL (≈ 42 µM) | – | –
Clc1ccc(-n2c(Cl)c(-c3ccc(Br)cc3)c3c(N4CCCC4)ncnc32)c(Cl)c1 [Compound 11a, 5-(4-bromophenyl)-6-chloro-7-(2,4-dichlorophenyl)-4-(pyrrolidin-1-yl)-7H-pyrrolo[2,3-d]pyrimidine] | 65.2 ± 1% | 12.5 ± 1.4% | 11.8 ± 0.6% | 47.3 ± 1.3% | 44.2 ± 0.8% | 84.3 ± 1.7% | 7.2 ± 1.3% | – | – | – | 55.4 ± 1.4 µg/mL (≈ 106 µM) | –
COc1ccc(-c2c(Cl)n(-c3ccc(Cl)cc3Cl)c3ncnc(N4CCCC4)c23)cc1OC [Compound 11b, 6-chloro-7-(2,4-dichlorophenyl)-5-(3,4-dimethoxyphenyl)-4-(pyrrolidin-1-yl)-7H-pyrrolo[2,3-d]pyrimidine] | 80.4 ± 1.8% | 94.6 ± 1.3% | 11.6 ± 0.9% | 56.9 ± 0.1% | 33.5 ± 0.4% | 25.6 ± 0.9% | 63.1 ± 0.5% | 48.4 ± 0.8 µg/mL (≈ 96.1 µM) | 27.7 ± 0.1 µg/mL (≈ 55 µM) | – | – | 80 to 95%
S=c1[nH]cnc2c1c(-c1ccc(Br)cc1)c(Cl)n2-c1ccc(Cl)cc1Cl [Compound 12, 5-(4-bromophenyl)-6-chloro-7-(2,4-dichlorophenyl)-3,7-dihydro-4H-pyrrolo[2,3-d]pyrimidine-4-thione] | 100% | 3.1 ± 0.2% | 71.3 ± 1.6% | 100% | 64.3 ± 1.1% | 81.5 ± 1.2% | 26.3 ± 3.4% | 11.9 ± 0.9 µg/mL (≈ 24.5 µM) | – | – | 59.7 ± 0.7 µg/mL (≈ 123 µM) | –
CSc1ncnc2c1c(-c1ccc(Br)cc1)c(Cl)n2-c1ccc(Cl)cc1Cl [Compound 13, 5-(4-bromophenyl)-6-chloro-7-(2,4-dichlorophenyl)-4-(methylthio)-7H-pyrrolo[2,3-d]pyrimidine] | 3.5 ± 0.6% | 32.2 ± 1.7% | 42.6 ± 1.2% | 25.3 ± 0.4% | 60.2 ± 1% | 58.8 ± 1.2% | 12.4 ± 1.9% | – | – | – | – | –
